Earlier results on two compounds are cited in US20100209368A1, “METHOD AND PREPARATION FOR TREATING BALDNESS” (priority 2009, published 2010).

Assay in series [1]: not given
The source holds these as a separate data set.

As for `O=C(OOC(=O)c1ccccc1)c1ccccc1` [Benzoyl peroxide, benzoyl peroxide], the “stability upon addition of water or ethanol” value (PEG or isopropyl myristate with added water or ethanol) is “greatly increased”. Where the note is “pure PEG or isopropyl myristate”, the “stability in pure solvents” value is reported as “not stable”. Besides, the solubility in ethanol result in series [1] (ethanol) is “slight solubility”. For the same compound, the “solubility in isopropyl myristate” value in series [1] (isopropyl myristate) is reported as “soluble”. Besides, in series [1] (polyethylene glycol), the “solubility in polyethylene glycol (PEG)” value is reported as “soluble”. In series [1], the solubility in water entry was “low solubility”.
For the compound zinc pyrithione, in series [1], the solubility in water entry is given as “sparingly soluble”.
